# Tested on: 439559-082-T-J2-PDC spheroids viability
# Experiment: Anticancer human tumor 439559-082-T-J2-PDC patient-derived colon adenocarcinoma cell line growth inhibition [GQUAD]
# Conditions: for IC50: curve of first compound; for viability, T/C: stronger effect = lower value
# Outline: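 Tumor cells were grown as complex spheroids with HUVEC endothelial cells and mesenchymal stem cells as stroma. G-quadruplex stabilizers were combined with targeted agents over half-log dilutions from near the clinical Cmax, or from 10 microM.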
# [1] = second compound 0.0316 µM, first compound 0.0316 µM
# [2] = second compound 0.0316 µM, first compound 0.1 µM
# [3] = second compound 0.0316 µM, first compound 0.316 µM
# [4] = second compound 0.0316 µM, first compound 1 µM
# [5] = second compound 0.0316 µM, first compound 3.16 µM
# [6] = second compound 0.0316 µM, first compound 10 µM
# [7] = second compound 0.1 µM, first compound 0.0316 µM
# [8] = second compound 0.1 µM, first compound 0.1 µM
# [9] = second compound 0.1 µM, first compound 0.316 µM
# [10] = second compound 0.1 µM, first compound 1 µM
# [11] = second compound 0.1 µM, first compound 3.16 µM
# [12] = second compound 0.1 µM, first compound 10 µM
# [13] = second compound 0.316 µM, first compound 0.0316 µM
# [14] = second compound 0.316 µM, first compound 0.1 µM
# [15] = second compound 0.316 µM, first compound 0.316 µM
# [16] = second compound 0.316 µM, first compound 1 µM
# [17] = second compound 0.316 µM, first compound 3.16 µM
# [18] = second compound 0.316 µM, first compound 10 µM
# [19] = second compound 1 µM, first compound 0.0316 µM
# [20] = second compound 1 µM, first compound 0.1 µM
# [21] = second compound 1 µM, first compound 0.316 µM
# [22] = second compound 1 µM, first compound 1 µM
# [23] = second compound 1 µM, first compound 3.16 µM
# [24] = second compound 1 µM, first compound 10 µM
# [25] = second compound 3.16 µM, first compound 0.0316 µM
# [26] = second compound 3.16 µM, first compound 0.1 µM
# [27] = second compound 3.16 µM, first compound 0.316 µM
# [28] = second compound 3.16 µM, first compound 1 µM
# [29] = second compound 3.16 µM, first compound 3.16 µM
# [30] = second compound 3.16 µM, first compound 10 µM
# [31] = second compound 10 µM, first compound 0.0316 µM
# [32] = second compound 10 µM, first compound 0.1 µM
# [33] = second compound 10 µM, first compound 0.316 µM
# [34] = second compound 10 µM, first compound 1 µM
# [35] = second compound 10 µM, first compound 3.16 µM
# [36] = second compound 10 µM, first compound 10 µM
# 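Also: spheroids exposed to the agents for 7 days before readout.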
# 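For viability, T/C in this document: percent of luminescence signal in DMSO vehicle wells taken as 100% viability.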
smiles,measurement,setting,value
CC1COCCN1c1cc(C2(O)CC3CCC(C2)O3)c2cnn(-c3ccn[nH]3)c2n1 (stereo unspecified) + CN(C)c1ccc(Nc2c3ccc(NC(=O)CCN4CCCC4)cc3nc3cc(NC(=O)CCN4CCCC4)ccc23)cc1,IC50,second compound 0.0316 µM,0.979 µM
same,IC50,second compound 0.1 µM,1.2 µM
same,IC50,second compound 0.316 µM,0.959 µM
same,IC50,second compound 1 µM,1.16 µM
same,IC50,second compound 3.16 µM,1.08 µM
same,IC50,second compound 10 µM,0.999 µM
same,"viability, T/C",[1],96.5%
same,"viability, T/C",[2],72.1%
same,"viability, T/C",[3],68.3%
same,"viability, T/C",[4],49.8%
same,"viability, T/C",[5],35.8%
same,"viability, T/C",[6],25.6%
same,"viability, T/C",[7],103%
same,"viability, T/C",[8],78.2%
same,"viability, T/C",[9],74.1%
same,"viability, T/C",[10],52.6%
same,"viability, T/C",[11],33.9%
same,"viability, T/C",[12],30.4%
same,"viability, T/C",[13],94.8%
same,"viability, T/C",[14],82.3%
same,"viability, T/C",[15],64.4%
same,"viability, T/C",[16],50.3%
same,"viability, T/C",[17],37%
same,"viability, T/C",[18],30.3%
same,"viability, T/C",[19],80.6%
same,"viability, T/C",[20],86.2%
same,"viability, T/C",[21],75.7%
same,"viability, T/C",[22],52%
same,"viability, T/C",[23],36.6%
same,"viability, T/C",[24],32.4%
same,"viability, T/C",[25],85.6%
same,"viability, T/C",[26],87.5%
same,"viability, T/C",[27],75.5%
same,"viability, T/C",[28],49%
same,"viability, T/C",[29],39.9%
same,"viability, T/C",[30],28.9%
same,"viability, T/C",[31],94.9%
same,"viability, T/C",[32],76.9%
same,"viability, T/C",[33],79.1%
same,"viability, T/C",[34],46%
same,"viability, T/C",[35],35%
same,"viability, T/C",[36],25.4%
O=c1[nH]cc(F)c(=O)[nH]1 + CN(C)c1ccc(Nc2c3ccc(NC(=O)CCN4CCCC4)cc3nc3cc(NC(=O)CCN4CCCC4)ccc23)cc1,IC50,second compound 0.0316 µM,> 10 µM
same,IC50,second compound 0.1 µM,> 10 µM
same,IC50,second compound 0.316 µM,> 10 µM
same,IC50,second compound 1 µM,> 10 µM
same,IC50,second compound 3.16 µM,> 10 µM
same,IC50,second compound 10 µM,> 10 µM
same,"viability, T/C",[1],101%
same,"viability, T/C",[2],103%
same,"viability, T/C",[3],86.6%
same,"viability, T/C",[4],81.2%
same,"viability, T/C",[5],75.7%
same,"viability, T/C",[6],76%
same,"viability, T/C",[7],115%
same,"viability, T/C",[8],106%
same,"viability, T/C",[9],89%
same,"viability, T/C",[10],84.1%
same,"viability, T/C",[11],77.2%
same,"viability, T/C",[12],69.1%
same,"viability, T/C",[13],98.2%
same,"viability, T/C",[14],105%
same,"viability, T/C",[15],85.9%
same,"viability, T/C",[16],80.4%
same,"viability, T/C",[17],75%
same,"viability, T/C",[18],75.2%
same,"viability, T/C",[19],97.2%
same,"viability, T/C",[20],104%
same,"viability, T/C",[21],89%
same,"viability, T/C",[22],81.3%
same,"viability, T/C",[23],74.6%
same,"viability, T/C",[24],81.8%
same,"viability, T/C",[25],88.8%
same,"viability, T/C",[26],102%
same,"viability, T/C",[27],85.5%
same,"viability, T/C",[28],73.9%
same,"viability, T/C",[29],73.3%
same,"viability, T/C",[30],72.1%
same,"viability, T/C",[31],96.4%
same,"viability, T/C",[32],93.1%
same,"viability, T/C",[33],81.5%
same,"viability, T/C",[34],74.6%
same,"viability, T/C",[35],70.2%
same,"viability, T/C",[36],73.5%
CCCS(=O)(=O)Nc1ccc(F)c(C(=O)c2c[nH]c3ncc(-c4ccc(Cl)cc4)cc23)c1F + CN(C)c1ccc(Nc2c3ccc(NC(=O)CCN4CCCC4)cc3nc3cc(NC(=O)CCN4CCCC4)ccc23)cc1,IC50,second compound 0.0316 µM,> 10 µM
same,IC50,second compound 0.1 µM,> 10 µM
same,IC50,second compound 0.316 µM,9.61 µM
same,IC50,second compound 1 µM,> 10 µM
same,IC50,second compound 3.16 µM,9.15 µM
same,IC50,second compound 10 µM,> 10 µM
same,"viability, T/C",[1],118%
same,"viability, T/C",[2],93.8%
same,"viability, T/C",[3],100%
same,"viability, T/C",[4],92.4%
same,"viability, T/C",[5],116%
same,"viability, T/C",[6],59.5%
same,"viability, T/C",[7],90.5%
same,"viability, T/C",[8],101%
same,"viability, T/C",[9],96.7%
same,"viability, T/C",[10],87.9%
same,"viability, T/C",[11],103%
same,"viability, T/C",[12],50.1%
same,"viability, T/C",[13],98.4%
same,"viability, T/C",[14],102%
same,"viability, T/C",[15],94.1%
same,"viability, T/C",[16],102%
same,"viability, T/C",[17],113%
same,"viability, T/C",[18],48.1%
same,"viability, T/C",[19],91.9%
same,"viability, T/C",[20],108%
same,"viability, T/C",[21],103%
same,"viability, T/C",[22],108%
same,"viability, T/C",[23],107%
same,"viability, T/C",[24],54.2%
same,"viability, T/C",[25],96%
same,"viability, T/C",[26],101%
same,"viability, T/C",[27],108%
same,"viability, T/C",[28],101%
same,"viability, T/C",[29],112%
same,"viability, T/C",[30],45.5%
same,"viability, T/C",[31],90.9%
same,"viability, T/C",[32],103%
same,"viability, T/C",[33],99.8%
same,"viability, T/C",[34],105%
same,"viability, T/C",[35],108%
same,"viability, T/C",[36],50.5%

# — PubChem BioAssay AID2060510 (Molecular Pharmacology Branch, DTP, NCI, 2025)
